In brackets after ≈: the same amount, converted by molar mass.
Assays:
Type in all cases: functional
Candida = test: Antifungal activity against Candida spp
Aspergillus flavus [1] = test: Antifungal activity against Aspergillus flavus; conditions: for MIC: Aspergillus flavus
Aspergillus ochraceus = test: Antifungal activity against Aspergillus ochraceus
Fusarium verticillioides = test: Antifungal activity against Fusarium moniliforme
Lasiodiplodia theobromae = test: Antifungal activity against Botryodiplodia theobromae
Trichophyton rubrum = test: Antifungal activity against Trichophyton rubrum
Cryptococcus neoformans [2] = test: Antifungal activity against Cryptococcus neoformans after 72 hrs by NCCLS broth microdilution method
Cryptococcus neoformans [3] = test: Antifungal activity against Cryptococcus neoformans
Aspergillus niger [4] = test: Antifungal activity against Aspergillus niger assessed as growth inhibition
Aspergillus flavus [5] = test: Antifungal activity against Aspergillus flavus assessed as growth inhibition
Aspergillus niger [6] = test: Antifungal activity against Aspergillus niger
Macrophomina phaseolina = test: Antifungal activity against Macrophomina phaseolina
Fusarium oxysporum = test: Antifungal activity against Fusarium oxysporum; conditions: Fusarium oxysporum
Aspergillus fumigatus [7] = test: Antifungal activity against Aspergillus fumigatus
Microsporum = test: Antifungal activity against Microsporum […]
Candida parapsilosis [8] = test: Antifungal activity against Candida parapsilosis; conditions: Lodderomyces parapsilosis
Candida tropicalis = test: Antifungal activity against Candida tropicalis
Candida albicans [9] = test: Ratio of compound MIC to itraconazole MIC for Candida albicans CA980001
Candida albicans [10] = test: Antifungal activity against Candida albicans CA980001
Aspergillus fumigatus [11] = test: Ratio of compound MIC to itraconazole MIC for Aspergillus fumigatus AF980003
Aspergillus fumigatus [12] = test: Antifungal activity against Aspergillus fumigatus AF980003
Sporothrix schenckii = test: Antifungal activity against Sporothrix schenckii
Candida albicans [13] = test: Antifungal activity against Candida albicans; conditions: Candida albicans
Candida parapsilosis [14] = test: Antifungal activity against Candida parapsilosis ATCC 22019; conditions: Lodderomyces parapsilosis

SMILES: CCOC(=O)C1C2(C(=O)N(c3ccccc3)N=C2C)C1(c1ccccc1)c1ccccc1 (centres undefined)
- MIC (Candida): 25 µg/mL (≈ 58.9 µM)

SMILES: O=C1CCCC2=C1C(c1ccc(F)cc1)N1C(=O)CSC1=N2 (centres undefined)
- MIC (Aspergillus flavus [1]): 40 µg/mL (≈ 126 µM)
- MIC (Aspergillus ochraceus): 40 µg/mL (≈ 126 µM)

SMILES: N#CC1=C(N)OC2=C(SC3=NC4=C(C(=O)CCC4)C(c4ccc(F)cc4)N32)C1c1ccc(Cl)cc1 (centres undefined)
- MIC (Aspergillus flavus [1]): 40 µg/mL (≈ 79.2 µM)
- MIC (Aspergillus ochraceus): 40 µg/mL (≈ 79.2 µM)

SMILES: COc1ccc(N2OC(c3ccccc3)CC2c2ccc(-c3ccccc3)cc2)cc1 (centres undefined)
- MIC (Aspergillus flavus [1]): 2.5 µg/mL (≈ 6.13 µM)
- MIC (Fusarium verticillioides): 2.5 µg/mL (≈ 6.13 µM)
- MIC (Lasiodiplodia theobromae): 2.5 µg/mL (≈ 6.13 µM)

SMILES: Clc1ccc(CN(Cc2ccc(-c3ccccc3)cc2)n2ccnc2)c(Cl)c1
- MIC (Trichophyton rubrum): 0.8 µg/mL (≈ 1.96 µM)

SMILES: CCC(c1cccc2ccccc12)N(C)C/C=C/C#CC(C)(C)C (centres undefined)
- MIC50 (Cryptococcus neoformans [2]): 0.5 µg/mL (≈ 1.56 µM)

SMILES: OC(Cn1cncn1)(Cn1cncn1)c1ccc(F)cc1F [FLUCONAZOLE]
- MIC (Cryptococcus neoformans [3]): 0.53 µg/mL (≈ 1.73 µM)

SMILES: CC1=NN(c2ccccc2)C(=O)C12C(C(=O)OC(C)(C)C)C2(c1ccccc1)c1ccccc1 (centres undefined)
- MIC (Candida): 25 µg/mL (≈ 55.2 µM)

SMILES: COC(=O)C1C2(C(=O)N(c3ccccc3)N=C2C)C1(c1ccccc1)c1ccccc1 (centres undefined)
- MIC (Candida): 25 µg/mL (≈ 60.9 µM)

SMILES: COc1ccc(N2OC(CO)CC2c2ccc(-c3ccccc3)cc2)cc1 (centres undefined)
- MIC (Aspergillus flavus [1]): 2.5 µg/mL (≈ 6.92 µM)
- MIC (Fusarium verticillioides): 2.5 µg/mL (≈ 6.92 µM)
- MIC (Lasiodiplodia theobromae): 2.5 µg/mL (≈ 6.92 µM)

SMILES: N#CC(=C1CCCC1)c1nc2cc(Cl)ccc2o1
- growth inhibition (GI) (Aspergillus niger [4]): 60%
- growth inhibition (GI) (Aspergillus flavus [5]): 60%

SMILES: CC1=NN(c2ccccc2)C(=O)C12C(C(=O)OC(C)C)C2(c1ccccc1)c1ccccc1 (centres undefined)
- MIC (Candida): 25 µg/mL (≈ 57 µM)

SMILES: N#Cc1c(Cl)c(Cl)c(Cl)c(C#N)c1Cl [CHLOROTHALONIL]
- MIC (Aspergillus niger [6]; Aspergillus niger): 52 µg/mL (≈ 196 µM)
- MIC (Macrophomina phaseolina): 52 µg/mL (≈ 196 µM)
- MIC (Fusarium oxysporum): 52 µg/mL (≈ 196 µM)

SMILES: C[C@@H]1[C@H](O)[C@@H](C)/C=C/C=C/C=C/C=C/C=C/C=C/C=C/[C@H](O[C@@H]2O[C@H](C)[C@@H](O)[C@H](N)[C@@H]2O)C[C@@H]2O[C@](O)(C[C@@H](O)C[C@@H](O)[C@H](O)CC[C@@H](O)C[C@@H](O)CC(=O)O[C@H]1C)C[C@H](O)[C@H]2C(=O)O [AMPHOTERICIN B]
- MIC (Cryptococcus neoformans [3]): 0.13 µg/mL (≈ 0.141 µM)

SMILES: CN(C/C=C/C#CC(C)(C)C)Cc1cccc2ccccc12 [TERBINAFINE]
- MIC50 (Cryptococcus neoformans [2]): 0.25 µg/mL (≈ 0.858 µM)

SMILES: OC(CN1CCN(c2ccc(OCc3ccncc3)cc2)CC1)(Cn1cncn1)c1ccccc1 (centres undefined)
- MIC (Aspergillus fumigatus [7]): 0.0625 µg/mL (≈ 0.133 µM)
- MIC (Trichophyton rubrum): 0.0625 µg/mL (≈ 0.133 µM)
- MIC (Cryptococcus neoformans [3]): 0.0625 µg/mL (≈ 0.133 µM)
- MIC (Microsporum): 0.0625 µg/mL (≈ 0.133 µM)
- MIC (Candida parapsilosis [8]): 0.0625 µg/mL (≈ 0.133 µM)
- MIC (Candida tropicalis): 0.0625 µg/mL (≈ 0.133 µM)

SMILES: O=C(Nc1ccccc1-c1nnc(-c2ccccc2)o1)c1ccccc1
- inhibition zone (IZ) (Aspergillus flavus [1]): 11 mm
- inhibition zone (IZ) (Aspergillus niger [6]): 15 mm

SMILES: CC1=NN(c2ccccc2)C(=O)C12C(C)(C#N)C2(c1ccccc1)c1ccccc1 (centres undefined)
- MIC (Candida): 25 µg/mL (≈ 63.9 µM)

SMILES: CCN(CC)C(=O)C1(C)C2(C(=O)N(c3ccccc3)N=C2C)C1(c1ccccc1)c1ccccc1 (centres undefined)
- MIC (Candida): 25 µg/mL (≈ 53.7 µM)

SMILES: Fc1ccc(N2OC(c3ccccc3)CC2c2ccc(-c3ccccc3)cc2)cc1 (centres undefined)
- MIC (Aspergillus flavus [1]): 2.5 µg/mL (≈ 6.32 µM)
- MIC (Fusarium verticillioides): 2.5 µg/mL (≈ 6.32 µM)
- MIC (Lasiodiplodia theobromae): 2.5 µg/mL (≈ 6.32 µM)

SMILES: Clc1ccccc1Cn1cc(Cn2ccnc2)c2cc(Br)ccc21
- Ratio (Candida albicans [9]): 16
- MIC (Candida albicans [10]): 8 µg/mL (≈ 20 µM)
- Ratio (Aspergillus fumigatus [11]): 16
- MIC (Aspergillus fumigatus [12]): 8 µg/mL (≈ 20 µM)

SMILES: CCOC(=O)C1(C)C2(C(=O)N(c3ccccc3)N=C2C)C1(c1ccccc1)c1ccccc1 (centres undefined)
- MIC (Candida): 25 µg/mL (≈ 57 µM)

SMILES: C[C@H](CCCN1C=NN(CC(O)(Cn2cncn2)c2ccc(F)cc2F)C1)[C@H]1CC[C@H]2[C@@H]3[C@H](O)C[C@@H]4CCCC[C@]4(C)[C@H]3CC[C@]12C (some centres undefined)
- MIC (Sporothrix schenckii): 2.18 µg/mL (≈ 3.34 µM)
- MIC (Candida albicans [13]): 2.18 µg/mL (≈ 3.34 µM)
- MIC (Candida parapsilosis [14]): 2.18 µg/mL (≈ 3.34 µM)

SMILES: COC(=O)C1(C)C2(C(=O)N(c3ccccc3)N=C2C)C1(c1ccccc1)c1ccccc1 (centres undefined)
- MIC (Candida): 25 µg/mL (≈ 58.9 µM)

SMILES: C[C@H](CCCN1C=NN(CC(O)(Cn2cncn2)c2ccc(F)cc2F)C1)[C@H]1CC[C@H]2[C@@H]3CC[C@@H]4CCCC[C@]4(C)[C@H]3CC[C@]12C (some centres undefined)
- MIC (Sporothrix schenckii): 2.18 µg/mL (≈ 3.42 µM)
- MIC (Candida albicans [13]): 2.18 µg/mL (≈ 3.42 µM)
- MIC (Candida parapsilosis [14]): 2.18 µg/mL (≈ 3.42 µM)
